Results taken from patent US20200330429A1, “METHOD OF TREATING TRUNCAL ACNE WITH TRIFAROTENE” (priority 2019, published 2020).

How the values were obtained:
moderate facial acne [1] = assay: PERFECT 1, 12-week vehicle-controlled study, facial acne efficacy; assay type: in vivo, human
Experimental: (§1) A multi-center (United States, Canada, Europe and Russia), 12-week, double-blinded, and vehicle controlled group study with a 1:1 randomization pattern (once daily trifarotene 50 μg/g or vehicle cream) was conducted in subjects with moderate facial and truncal acne. Enrolled patients or caregivers received instruction about how to apply a thin layer of study drug daily at bedtime on the face and self-reachable trunk. Patients were also instructed to cleanse the skin and not to apply moisturizer one hour before or one hour after study drug application. Use of moisturizer was encouraged from the initiation of treatment. Investigators could reduce the frequency of application to alternate days for a maximum of 2 weeks in the first 4 weeks following the Baseline visit when needed to manage irritation. The patients were selected based on the following criteria.
Inclusion Criteria: • 1. Male or female patients 9 years or older. • 2. Moderate facial acne, defined as: Investigator Global Assessment (IGA) score of 3 on the face. Minimum of 20 inflammatory lesions and 25 non-inflammatory lesions on the face at Screening and Baseline • 3. Moderate truncal acne with Physician Global Assessment (PGA) score of 3 at Screening and Baseline. Minimum of 20 inflammatory lesions and 20 non-inflammatory lesions but no more than 100 non-inflammatory lesion counts on the trunk (shoulders, upper back and upper anterior chest) reachable to self-application of study drug by the subject at Screening and Baseline (optional criterion for subject between 9 and 11 years of age). • 4. Accessible treated areas of the trunk were defined for the study. The trunk anatomical region assessment was pre-defined by a size-fitted T-shirt (patent # US00D7580485, Jun. 7, 2016). This ensured consistency for study assessment areas throughout the study duration. • 5. […]
(§2) Severity definitions for IGA and PGA scales [5-point scales ranging from 0 (clear) to 4 (severe)] were the same. Lesion counts were performed and IGA and PGA were assessed at Screening, Baseline, and Weeks 1, 2, 4, 8, and 12/ET visits. […]

moderate truncal acne [2] = assay: PERFECT 1, 12-week vehicle-controlled study, truncal acne efficacy; assay type: in vivo, human
Experimental: as §1
(§3) Inclusion Criteria: • 1. Male or female patients 9 years or older. • 2. Moderate facial acne, defined as: Investigator Global Assessment (IGA) score of 3 on the face. Minimum of 20 inflammatory lesions and 25 non-inflammatory lesions on the face at Screening and Baseline • 3. […]
as §2

moderate facial acne [3] = assay: PERFECT 2, 12-week vehicle-controlled study, facial acne efficacy; assay type: in vivo, human
Experimental: as §1
Inclusion Criteria: • 1. Male or female patients 9 years or older. • 2. Moderate facial acne, defined as: Investigator Global Assessment (IGA) score of 3 on the face. Minimum of 20 inflammatory lesions and 25 non-inflammatory lesions on the face at Screening and Baseline • 3. Moderate truncal acne with Physician Global Assessment (PGA) score of 3 at Screening and Baseline. Minimum of 20 inflammatory lesions and 20 non-inflammatory lesions but no more than 100 non-inflammatory lesion counts on the trunk (shoulders, upper back and upper anterior chest) reachable to self-application of study drug by the subject at Screening and Baseline (optional criterion for subject between 9 and 11 years of age). • 4. Accessible treated areas of the trunk were defined for the study. The trunk anatomical region assessment was pre-defined by a size-fitted T-shirt (patent # US00D7580485, Jun. 7, 2016). This ensured consistency for study assessment areas throughout the study duration. • 5. For subjects aged 9 to 11 years, inclusion criteria regarding truncal acne were optional due to relative rarity of trunk involvement (compared with face) in this age group.
Primary Efficacy Endpoints • Success rate, defined as the percentage of subjects who achieved an IGA score on the face of 1 (Almost Clear) or 0 (Clear) and at least a 2-grade improvement from Baseline to Week 12. • Absolute and percent change (supportive efficacy endpoint) in facial inflammatory lesion count from Baseline to Week 12. • Absolute and percent change (supportive efficacy endpoint) in facial non-inflammatory lesion count from Baseline to Week 12.
Severity definitions for IGA and PGA scales [5-point scales ranging from 0 (clear) to 4 (severe)] were the same. Lesion counts were performed and IGA and PGA were assessed at Screening, Baseline, and Weeks 1, 2, 4, 8, and 12/ET visits.
Trifarotene or the vehicle were applied once daily in the evening for 12 weeks. […]

moderate truncal acne [4] = assay: PERFECT 2, 12-week vehicle-controlled study, truncal acne efficacy; assay type: in vivo, human
Experimental: as §1, §3, §2

[5] = tested on: subjects with moderate facial and truncal acne; assay: PERFECT 1 safety: local tolerability and adverse events; assay type: in vivo, human
Experimental: as §1
(§4) Safety was assessed through adverse events, vital signs and routine laboratory testing. Safety assessments included treatment emergent adverse events (TEAE5), standard laboratory safety tests at screening and last study visit including hematology, blood chemistry, and urinalysis (Barc Central Laboratory, US and Belgium), physical examination, and monitoring of vital signs. Local tolerability signs/symptoms expected with a topical retinoid were collected separately from adverse events to better characterize the tolerability profile of trifarotene cream. These included erythema, scaling, dryness, and stinging/burning scored on a 4-point scale, none=0, mild=1, moderate=2, severe=3. Subjects were specifically queried at each study visit, including Baseline, for the presence of local signs or symptoms. Signs and/or symptoms of local cutaneous irritation assessed with the tolerability scale were considered to be Adverse Events if they were severe enough to lead to permanent discontinuation of study product treatment or required use of concomitant treatment including over-the-counter products (other than moisturizers). Subjects were assessed at screening/baseline and Weeks 1, 2, 4, 8 and 12.
(§5) Trifarotene or the vehicle were applied once daily in the evening for 12 weeks. The liberal use of a non-comedogenic and hypoallergenic moisturizer and non-comedogenic sunscreen was allowed. Trifarotene or the vehicle were not to be applied to cuts, abrasions, eczematous, or sunburned skin.

[6] = tested on: subjects with moderate facial and truncal acne; assay: PERFECT 2 safety: local tolerability and adverse events; assay type: in vivo, human
Experimental: as §1, §4, §5

[7] = tested on: subjects with moderate facial and truncal acne; assay: PERFECT 1 and PERFECT 2, statements for both studies together; assay type: in vivo, human
Experimental: Enrolled patients or caregivers received instruction about how to apply a thin layer of study drug daily at bedtime on the face and self-reachable trunk. Patients were also instructed to cleanse the skin and not to apply moisturizer one hour before or one hour after study drug application. Use of moisturizer was encouraged from the initiation of treatment. […] The patients were selected based on the following criteria. […] Lesion counts were performed and IGA and PGA were assessed at Screening, Baseline, and Weeks 1, 2, 4, 8, and 12/ET visits. Safety was assessed through adverse events, vital signs and routine laboratory testing. Safety assessments included treatment emergent adverse events (TEAE5), standard laboratory safety tests at screening and last study visit including hematology, blood chemistry, and urinalysis (Barc Central Laboratory, US and Belgium), physical examination, and monitoring of vital signs. Local tolerability signs/symptoms expected with a topical retinoid were collected separately from adverse events to better characterize the tolerability profile of trifarotene cream. […] Subjects were specifically queried at each study visit, including Baseline, for the presence of local signs or symptoms. Signs and/or symptoms of local cutaneous irritation assessed with the tolerability scale were considered to be Adverse Events if they were severe enough to lead to permanent discontinuation of study product treatment or required use of concomitant treatment including over-the-counter products (other than moisturizers). […] Trifarotene or the vehicle were applied once daily in the evening for 12 weeks. The liberal use of a non-comedogenic and hypoallergenic moisturizer and non-comedogenic sunscreen was allowed. Trifarotene or the vehicle were not to be applied to cuts, abrasions, eczematous, or sunburned skin.

moderate truncal acne [8] = assay: SATisFy 52-week study, truncal acne efficacy; assay type: in vivo, human
Experimental: (§6) A multi-center, 52-week, […] group study (SATisFy) with once daily trifarotene 50 μg/g was conducted in subjects with moderate facial and truncal acne. The screening/baseline weeks were 1, 2, 4, 8, 12, 20, 26, 38 & week 52. Inclusion/exclusion criteria and assessment are as described in Example 1, unless mentioned otherwise. Additional assessments may include subject's facial acne assessment, quality of life (DLQI and CDLQI) and standard facial and trunk photography.
(§7) Efficacy • Success rate: IGA/PGA score of 2 grade in improvement and Clear (0) or Almost Clear (1) • Grade change from baseline of IGA & PGA • Subject's assessment of facial acne improvement.

moderate facial acne [9] = assay: SATisFy 52-week study, facial acne efficacy and quality of life; assay type: in vivo, human
Experimental: as §6, §7

keratinocytes = details: cited from earlier work
[10] = hepatic microsomes; cited from earlier work
[11] = week 12, trunk population, SATisFy
[12] = week 52, trunk population, SATisFy

Structure (SMILES): CC(C)(C)c1cc(-c2cc(-c3ccc(C(=O)O)cc3)ccc2OCCO)ccc1N1CCCC1 [trifarotene, 3″-tert-Butyl-4′-(2-hydroxy-ethoxy)-4″-pyrrolidin-1-yl-[1,1′,3′,1″]terphenyl-4-carboxylic acid]
- statistically significant superior facial IGA success rates vs vehicle, at week (moderate facial acne [1]; PERFECT 1): 4 week
- Inflammatory Lesions Mean Absolute Change from baseline (moderate facial acne [1]; face, Week 12, PERFECT 1): −19.0
- IGA Success (%) (moderate facial acne [1]; face, Week 12, PERFECT 1, 50 μg/g once daily): 29.4%
- statistically significantly superior reductions in inflammatory and non-inflammatory lesions on the trunk, starting by week (moderate truncal acne [2]; PERFECT 1): 4 week
- PGA Success (%) (moderate truncal acne [2]; trunk, Week 12, PERFECT 1): 35.7%
- statistically significant superior facial IGA success rates vs vehicle, at week (moderate facial acne [3]; PERFECT 2): 8 week
- Inflammatory Lesions Mean Absolute Change from baseline (moderate facial acne [3]; face, Week 12, PERFECT 2): −24.2
- Non-inflammatory Lesions Mean Absolute Change from baseline (moderate facial acne [3]; face, Week 12, PERFECT 2): −30.1
- IGA Success (%) (moderate facial acne [3]; face, Week 12, PERFECT 2, 50 μg/g once daily): 42.3%
- statistically significantly superior reductions in inflammatory and non-inflammatory lesions on the trunk, starting by week (moderate truncal acne [4]; PERFECT 2): 2 week
- PGA Success (%) (moderate truncal acne [4]; trunk, Week 12, PERFECT 2): 42.6%
- Severe AEs considered related to trifarotene therapy, subjects [5]: 6 subjects
- Severe related AE: dermatitis allergic, number [5]: 1
- Severe related AE: skin irritation, number [5]: 4
- Severe related AE: sunburn, number [5]: 1
- Severe AEs considered related to trifarotene therapy, subjects [6]: 3 subjects
- Severe related AE: application site erosion, number [6]: 1
- Severe related AE: application site irritation, number [6]: 1
- Severe related AE: application site pain, number [6]: 1
- changes in vital signs, physical exams and laboratory parameters ([7]; PERFECT 1 and PERFECT 2): no significant clinically relevant changes
- serious AEs ([7]; PERFECT 1 and PERFECT 2): no AE was serious
- success rates on the trunk statistically significant vs vehicle, starting at week ([7]; both studies): 8 week
- facial lesion count reductions, statistical differences vs vehicle apparent as early as week ([7]; face): 1-2 week
- overall success rate in same subject for truncal acne (moderate truncal acne [8]; Wk12 (87/396)): 22.0%
- overall success rate in same subject for truncal acne (moderate truncal acne [8]; Wk20 (138/375)): 36.8%
- overall success rate in same subject for truncal acne (moderate truncal acne [8]; Wk26 (157/363)): 43.3%
- overall success rate in same subject for truncal acne (moderate truncal acne [8]; Wk38 (177/355)): 49.9%
- overall success rate in same subject for truncal acne (moderate truncal acne [8]; Wk52 (199/344)): 57.9%
- PGA success rates (moderate truncal acne [8]; [11]): 38.6%
- trunk IGA success rates (moderate truncal acne [8]; [11]): 26.6%
- success rates (IGA) (moderate truncal acne [8]; [12]): 65.1%
- success rates (PGA) (moderate truncal acne [8]; [12]): 66.9%
- success rates, facial acne (moderate facial acne [9]; Wk12 (166/401)): 41.4%
- success rates, facial acne (moderate facial acne [9]; Wk26 (201/367)): 54.8%
- success rates, facial acne (moderate facial acne [9]; Wk52 (233/350)): 66.6%
- subjects who reported that acne had no effect on quality of life (moderate facial acne [9]; week 52 (92/171), 22.6% at Baseline): 53.8%
- metabolic stability (keratinocytes): metabolically stable
- metabolism [10]: rapidly metabolized
